Experimental data as given in ChEMBL document CHEMBL5390264, “Exploring Fatty Acid Mimetics as NR4A Ligands” (J Med Chem, 2023).
Active and inactive are the calls of the source. No cut-off for these calls is given here.

Legend:
[1] = target: Nuclear receptor subfamily 4 group A member 3 (Homo sapiens, UniProt Q92570); assay: Agonist activity at human NOR-1 LBD transiently transfected in HEK293T cells assessed as maximal activation incubated for 16 hrs by Gal4-hybrid reporter gene based Dual-glo luciferase assay relative to control; type: cell-based; conditions: filed as agonist
Chain of Nuclear receptor subfamily 4 group A member 3 (Q92570 whole entry, the tested form may be a part): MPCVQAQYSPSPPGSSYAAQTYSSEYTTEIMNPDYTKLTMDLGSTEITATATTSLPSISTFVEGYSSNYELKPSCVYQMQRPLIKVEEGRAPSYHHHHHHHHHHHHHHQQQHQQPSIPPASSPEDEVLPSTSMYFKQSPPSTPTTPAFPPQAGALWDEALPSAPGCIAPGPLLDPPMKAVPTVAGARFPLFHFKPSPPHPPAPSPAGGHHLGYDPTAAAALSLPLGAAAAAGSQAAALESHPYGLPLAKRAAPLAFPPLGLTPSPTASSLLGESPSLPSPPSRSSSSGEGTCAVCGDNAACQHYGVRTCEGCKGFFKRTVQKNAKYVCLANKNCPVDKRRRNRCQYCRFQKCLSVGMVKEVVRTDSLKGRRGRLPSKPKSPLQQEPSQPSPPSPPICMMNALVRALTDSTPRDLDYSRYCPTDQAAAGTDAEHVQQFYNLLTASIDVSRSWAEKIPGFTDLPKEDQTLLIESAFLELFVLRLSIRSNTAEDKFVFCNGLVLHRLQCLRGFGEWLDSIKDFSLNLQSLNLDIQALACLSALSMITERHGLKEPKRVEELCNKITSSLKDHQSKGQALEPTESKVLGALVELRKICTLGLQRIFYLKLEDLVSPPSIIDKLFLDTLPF

[2] = target: T1, Retinoic acid receptor alpha (Homo sapiens) (UniProt P10276); assay: Agonist activity at RARalpha LBD (unknown origin) transiently transfected in HEK293T cells at 1 uM incubated for 16 hrs by Gal4-hybrid reporter gene based Dual-glo luciferase assay; type: cell-based
T1 sequence (whole entry): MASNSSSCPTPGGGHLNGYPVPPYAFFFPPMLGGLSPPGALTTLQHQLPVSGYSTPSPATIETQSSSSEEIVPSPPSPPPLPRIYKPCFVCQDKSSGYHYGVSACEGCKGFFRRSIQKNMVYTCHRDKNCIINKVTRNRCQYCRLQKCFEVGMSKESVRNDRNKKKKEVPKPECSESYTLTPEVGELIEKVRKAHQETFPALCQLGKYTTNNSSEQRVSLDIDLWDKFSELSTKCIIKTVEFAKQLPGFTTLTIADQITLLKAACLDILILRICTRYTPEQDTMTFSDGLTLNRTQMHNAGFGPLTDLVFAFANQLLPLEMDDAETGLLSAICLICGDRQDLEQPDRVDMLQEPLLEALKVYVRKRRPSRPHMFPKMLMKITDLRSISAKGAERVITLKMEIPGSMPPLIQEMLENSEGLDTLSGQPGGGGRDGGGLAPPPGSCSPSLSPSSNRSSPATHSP

[3] = target: T2, Peroxisome proliferator-activated receptor gamma (Homo sapiens) (UniProt P37231); assay: Agonist activity at PPARgamma LBD (unknown origin) transiently transfected in HEK293T cells at 1 uM incubated for 16 hrs by Gal4-hybrid reporter gene based Dual-glo luciferase assay; type: cell-based
T2 sequence (whole entry): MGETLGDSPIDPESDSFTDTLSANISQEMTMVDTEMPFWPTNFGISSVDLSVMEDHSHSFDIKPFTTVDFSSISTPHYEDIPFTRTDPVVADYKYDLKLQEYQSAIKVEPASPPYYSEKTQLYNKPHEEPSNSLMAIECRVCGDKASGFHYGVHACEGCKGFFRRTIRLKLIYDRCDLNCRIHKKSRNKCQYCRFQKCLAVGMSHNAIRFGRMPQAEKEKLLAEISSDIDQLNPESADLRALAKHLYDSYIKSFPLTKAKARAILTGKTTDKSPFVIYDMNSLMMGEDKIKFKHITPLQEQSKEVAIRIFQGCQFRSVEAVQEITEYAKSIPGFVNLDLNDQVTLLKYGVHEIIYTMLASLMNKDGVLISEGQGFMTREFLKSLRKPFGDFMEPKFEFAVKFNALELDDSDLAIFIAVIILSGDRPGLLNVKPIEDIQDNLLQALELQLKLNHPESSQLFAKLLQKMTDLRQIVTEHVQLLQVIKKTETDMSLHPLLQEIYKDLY

[4] = target: T3, Bile acid receptor (Homo sapiens) (UniProt Q96RI1); assay: Agonist activity at FXR LBD (unknown origin) transiently transfected in HEK293T cells at 1 uM incubated for 16 hrs by Gal4-hybrid reporter gene based Dual-glo luciferase assay; type: cell-based
T3 sequence (whole entry): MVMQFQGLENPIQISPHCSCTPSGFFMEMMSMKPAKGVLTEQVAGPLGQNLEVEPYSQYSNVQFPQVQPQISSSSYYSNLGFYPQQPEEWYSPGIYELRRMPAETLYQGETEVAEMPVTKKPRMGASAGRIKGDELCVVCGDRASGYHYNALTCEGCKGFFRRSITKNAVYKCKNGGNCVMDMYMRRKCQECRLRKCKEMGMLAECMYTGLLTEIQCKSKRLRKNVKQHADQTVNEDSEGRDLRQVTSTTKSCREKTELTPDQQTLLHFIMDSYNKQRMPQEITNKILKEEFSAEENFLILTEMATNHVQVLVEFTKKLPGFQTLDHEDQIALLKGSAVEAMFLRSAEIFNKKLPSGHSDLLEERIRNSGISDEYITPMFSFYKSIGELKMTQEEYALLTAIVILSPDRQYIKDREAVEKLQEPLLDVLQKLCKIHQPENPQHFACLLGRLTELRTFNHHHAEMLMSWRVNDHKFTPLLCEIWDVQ

[5] = target: T4, Retinoic acid receptor RXR-alpha (Homo sapiens) (UniProt P19793); assay: Agonist activity at human full length RXRalpha transiently transfected in HEK293T cells at 1 uM incubated for 16 hrs by Gal4-hybrid reporter gene based Dual-glo luciferase assay; type: cell-based
T4 sequence (whole entry): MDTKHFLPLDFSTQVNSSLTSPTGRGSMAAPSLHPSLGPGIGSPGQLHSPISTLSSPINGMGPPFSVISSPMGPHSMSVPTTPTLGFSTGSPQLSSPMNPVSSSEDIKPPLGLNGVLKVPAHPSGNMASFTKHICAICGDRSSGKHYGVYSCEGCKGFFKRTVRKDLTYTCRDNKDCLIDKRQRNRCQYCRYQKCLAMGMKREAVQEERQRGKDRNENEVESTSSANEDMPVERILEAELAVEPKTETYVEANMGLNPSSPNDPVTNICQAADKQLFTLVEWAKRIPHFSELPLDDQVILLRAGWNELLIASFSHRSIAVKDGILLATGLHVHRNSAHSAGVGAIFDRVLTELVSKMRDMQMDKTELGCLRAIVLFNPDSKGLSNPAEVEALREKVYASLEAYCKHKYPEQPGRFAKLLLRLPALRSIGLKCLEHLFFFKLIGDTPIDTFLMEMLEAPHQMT

[6] = Selectivity ratio for agonist activity at THRalpha LBD (unknown origin) transiently transfected in HEK293T cells to agonist activity at human Nurr1 LBD transiently transfected in HEK293T cells; type: cell-based
[7] = Selectivity ratio for agonist activity at VDR LBD (unknown origin) transiently transfected in HEK293T cells to agonist activity at human Nurr1 LBD transiently transfected in HEK293T cells; type: cell-based
[8] = Selectivity ratio for agonist activity at FXR LBD (unknown origin) transiently transfected in HEK293T cells to agonist activity at human Nurr1 LBD transiently transfected in HEK293T cells; type: cell-based
[9] = Selectivity ratio for agonist activity at PPARalpha LBD (unknown origin) transiently transfected in HEK293T cells to agonist activity at human NOR-1 LBD transiently transfected in HEK293T cells; type: cell-based
[10] = target: T5, Nuclear receptor subfamily 4 group A member 2 (Homo sapiens, UniProt P43354); assay: Agonist activity at full length human Nurr1 transiently transfected in HEK293T cells co-transfected with pFR-Luc-NurRE incubated for 16 hrs by Gal4-hybrid reporter gene based Dual-glo luciferase assay; type: cell-based
T5 sequence (P43354 whole entry, the tested form may be a part): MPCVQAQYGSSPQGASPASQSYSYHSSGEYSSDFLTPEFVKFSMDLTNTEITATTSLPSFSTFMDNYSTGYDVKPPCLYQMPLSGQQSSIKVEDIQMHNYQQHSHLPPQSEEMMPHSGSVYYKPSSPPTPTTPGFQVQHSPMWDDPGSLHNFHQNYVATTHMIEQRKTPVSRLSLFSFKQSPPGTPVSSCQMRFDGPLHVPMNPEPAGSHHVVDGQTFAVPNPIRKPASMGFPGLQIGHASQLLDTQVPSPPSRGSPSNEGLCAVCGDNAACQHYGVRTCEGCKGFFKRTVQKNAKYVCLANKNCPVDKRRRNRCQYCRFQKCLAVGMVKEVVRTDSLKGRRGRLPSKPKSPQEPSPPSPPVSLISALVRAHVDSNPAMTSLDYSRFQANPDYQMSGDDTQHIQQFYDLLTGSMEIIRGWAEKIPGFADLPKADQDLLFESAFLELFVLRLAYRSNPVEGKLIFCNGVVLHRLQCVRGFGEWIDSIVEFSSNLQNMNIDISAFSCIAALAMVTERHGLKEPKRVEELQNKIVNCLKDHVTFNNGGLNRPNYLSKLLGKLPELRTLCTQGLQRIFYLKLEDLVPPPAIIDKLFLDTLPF

[11] = target: T5, Nuclear receptor subfamily 4 group A member 2; assay: Agonist activity at full length human Nurr1 transiently transfected in HEK293T cells co-transfected with pFR-Luc-DR5 incubated for 16 hrs by Gal4-hybrid reporter gene based Dual-glo luciferase assay; type: cell-based
[12] = target: T5, Nuclear receptor subfamily 4 group A member 2; conditions: filed as agonist, dose 100.0 µM

- Emax [1]: 185%
- Activity [2]: inactive
- Activity [3]: inactive
- Activity [4]: inactive
- Activity [5]: inactive
- EC50 [10]: 10 nM
- EC50 [11]: 12 nM
- deltaH [12]: -4 kcal/mol
Structure (SMILES): CC(C)(C)c1ccc(COc2cccc(C(=O)O)c2)cc1
- Selectivity ratio [6]: > 30
- Selectivity ratio [7]: > 30
- Selectivity ratio [8]: > 30
- Selectivity ratio [9]: > 30
